In patent publication US20250228239A1, “MOLECULES HAVING PESTICIDAL UTILITY, AND INTERMEDIATES, COMPOSITIONS, AND PROCESSES, RELATED THERETO” (priority 2024, published 2025) one finds pest or weed control data, which are given here for 20 compounds.

Like-named read-outs stand apart in the source and are kept apart here.

Test [1] has as its system Cabbage Looper (Trichoplusia ni, TRIPNI). The test is described as follows: Bioassays on Cabbage Looper (CL), 128-well diet tray assay. Conditions: Trichoplusia ni. The class given is in vivo. The gist of the method:
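One to five second-instar larvae per well on artificial diet surface-treated with 50 μg/cm^2 test molecule (applied in 90:10 acetone-water, dried). Held 5–7 days at 25° C, 14:10 light-dark; percent mortality recorded per well and averaged over eight wells.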

Test [2] has as its system Beet Armyworm (Spodoptera exigua, LAPHEG). The test is described as follows: Bioassays on Beet Armyworm (BAW), 128-well diet tray assay. Conditions: Spodoptera exigua. The format is in vivo. The gist of the method: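 One to five second-instar larvae per well on artificial diet surface-treated with 50 μg/cm^2 test molecule (applied in 90:10 acetone-water, dried), eight wells per compound. Trays held vented at 25° C., 14:10 light-dark for five to seven days; percent mortality averaged over the eight wells.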

The mark [3] stands for this setting: Cabbage Looper, Table ABC / ABC-DP rating, read-out: CL rating.
The mark [4] stands for this setting: Beet Armyworm, Table ABC / ABC-DP rating, read-out: BAW rating.
Setting [5] is: Table ABC: Biological Results, species CL, read-out: CL.
Where [6] appears, read: Table ABC: Biological Results, species BAW, read-out: BAW.
[7] abbreviates: Cabbage Looper, rating class, read-out: CL.
Setting [8] is: Beet Armyworm, rating class, read-out: BAW.

Regarding `O=C(Nc1ccc(F)c(NC(=O)C2CCOC2C(F)(F)F)c1F)c1cc(NC(=O)[C@H]2[C@H](c3ccc(F)c(C(F)(F)F)c3)C2(Cl)Cl)ccc1Cl` (stereo partly drawn) [F1837, N-(3-(2-Chloro-5-((1R,3R)-2,2-dichloro-3-(4-fluoro-3-(trifluoromethyl)phenyl)cyclopropane-1-carboxamido)benzamido)-2,6-difluorophenyl)-2-(trifluoromethyl)tetrahydrofuran-3-carboxamide], the pest or weed control at 50 µg/cm2 in test [1] (setting [3]) and in test [2] (setting [4]) was 50 to 100% throughout.

Consider `O=C(Nc1c(F)cc(F)cc1F)c1cc(NC(=O)[C@H]2[C@H](c3cc(Cl)cc(Cl)c3)C2(Cl)Cl)ccc1Cl` (single isomer, unassigned) [F1377], for which the pest or weed control at 50 µg/cm2 in test [1] (setting [5]) and in test [2] (setting [6]) was 50 to 100% each time.

As to `N#CC1(C(=O)Nc2c(F)ccc(NC(=O)c3cc(NC(=O)[C@H]4[C@H](c5ccc(Cl)c(Cl)c5)C4(Cl)Cl)ccc3Cl)c2F)CC1` [F1609, 2-Chloro-N-(3-(1-cyanocyclopropane-1-carboxamido)-2,4-difluorophenyl)-5-((1R,3R)-2,2-dichloro-3-(3,4-dichlorophenyl)cyclopropane-1-carboxamido)benzamide], the pest or weed control at 50 µg/cm2 in test [1] (setting [7]) and in test [2] (setting [8]) was 50 to 100% each time.

As to `Nc1c(F)ccc(NC(=O)c2cc(NC(=O)[C@H]3[C@H](c4ccc(Cl)c(Cl)c4)C3(Cl)Cl)ccc2F)c1F` [F1459, N-(3-Amino-2,4-difluorophenyl)-5-((1R,3R)-2,2-dichloro-3-(3,4-dichlorophenyl)cyclopropane-1-carboxamido)-2-fluorobenzamide], the pest or weed control at 50 µg/cm2 in test [1] (setting [7]) and in test [2] (setting [8]) was 50 to 100% in each case.

For the compound `CC(CC(F)(F)F)C(=O)Nc1c(F)ccc(NC(=O)c2cc(NC(=O)[C@H]3[C@H](c4ccc(Cl)c(Cl)c4)C3(Cl)Cl)ccc2Cl)c1F` (stereo partly drawn) [F1862, 2-Chloro-5-((1R,3R)-2,2-dichloro-3-(3,4-dichlorophenyl)cyclopropane-1-carboxamido)-N-(2,4-difluoro-3-(4,4,4-trifluoro-2-methylbutanamido)phenyl) benzamide], the pest or weed control at 50 µg/cm2 in test [1] (setting [3]) and in test [2] (setting [4]) was 50 to 100% each time.

As to `N#CCC(=O)Nc1c(F)ccc(NC(=O)c2cc(NC(=O)[C@H]3[C@H](c4cc(Cl)c(Cl)c(Cl)c4)C3(Cl)Cl)ccc2Cl)c1F` [F1650, 2-Chloro-N-(3-(2-cyanoacetamido)-2,4-difluorophenyl)-5-((1R,3R)-2,2-dichloro-3-(3,4,5-trichlorophenyl)cyclopropane-1-carboxamido)benzamide], the pest or weed control at 50 µg/cm2 in test [1] (setting [7]) and in test [2] (setting [8]) was 50 to 100% each time.

For the compound `O=C(Nc1ccc(F)c(NC(=O)C2CCO2)c1F)c1cc(NC(=O)[C@H]2[C@H](c3ccc(F)c(C(F)(F)F)c3)C2(Cl)Cl)ccc1Cl` (stereo partly drawn) [F1503, N-(3-(2-Chloro-5-((1R,3R)-2,2-dichloro-3-(4-fluoro-3-(trifluoromethyl)phenyl)cyclopropane-1-carboxamido)benzamido)-2,6-difluorophenyl)oxetane-2-carboxamide], the pest or weed control at 50 µg/cm2 in test [1] (setting [7]) and in test [2] (setting [8]) was 50 to 100% each time.

Take `O=C(COC(F)(F)F)Nc1ccc(F)c(NC(=O)c2cc(NC(=O)[C@H]3[C@H](c4cc(Cl)c(Cl)c(Cl)c4)C3(Cl)Cl)cc(F)c2F)c1F` [F1777, 5-((1R,3R)-2,2-Dichloro-3-(3,4,5-trichlorophenyl)cyclopropane-1-carboxamido)-N-(2,6-difluoro-3-(2-(trifluoromethoxy)acetamido)phenyl)-2,3-difluorobenzamide]: the pest or weed control at 50 µg/cm2 in test [1] (setting [3]) and in test [2] (setting [4]) was 50 to 100% in each case.

For `O=C(Nc1ccc(F)c(NS(=O)(=O)CC2CC2(Cl)Cl)c1F)c1cc(NC(=O)[C@H]2[C@H](c3ccc(F)c(C(F)(F)F)c3)C2(Cl)Cl)ccc1Cl` (stereo partly drawn) [F1361, 2-Chloro-5-((1R,3R)-2,2-dichloro-3-(4-fluoro-3-(trifluoromethyl)phenyl)cyclopropane-1-carboxamido)-N-(3-(((2,2-dichlorocyclopropyl)methyl)sulfonamido)-2,4-difluorophenyl)benzamide], the pest or weed control at 50 µg/cm2 in test [1] (setting [5]) and in test [2] (setting [6]) was 50 to 100% each time.

In the case of `O=C(NCCCCl)c1c(Cl)ccc(NC(=O)[C@H]2[C@H](c3ccc(F)c(Cl)c3)C2(Cl)Cl)c1F` [F2074, 6-Chloro-N-(3-chloropropyl)-3-((1R,3R)-2,2-dichloro-3-(3-chloro-4-fluorophenyl)cyclopropane-1-carboxamido)-2-fluorobenzamide], the pest or weed control at 50 µg/cm2 in test [1] (setting [3]) and in test [2] (setting [4]) was 50 to 100% each time.

With `CC(=O)Nc1cc(NC(=O)c2cc(NC(=O)[C@H]3[C@H](c4ccc(F)c(C(F)(F)F)c4)C3(Cl)Cl)cc(F)c2F)c(F)cc1F` [F1587, N-(5-Acetamido-2,4-difluorophenyl)-5-((1R,3R)-2,2-dichloro-3-(4-fluoro-3-(trifluoromethyl)phenyl)cyclopropane-1-carboxamido)-2,3-difluorobenzamide], the pest or weed control at 50 µg/cm2 in test [1] (setting [7]) and in test [2] (setting [8]) was 50 to 100% each time.

On to `CCNC(=O)c1cc(NC(=O)[C@H]2[C@H](c3ccc(F)c(Cl)c3)C2(Cl)Cl)cc(F)c1F` (relative stereo) [F2051, trans-5-(2,2-Dichloro-3-(3-chloro-4-fluorophenyl)cyclopropane-1-carboxamido)-N-ethyl-2,3-difluorobenzamide], for which the pest or weed control at 50 µg/cm2 in test [1] (setting [3]) and in test [2] (setting [4]) was 50 to 100% in each case.

Regarding `O=C(Nc1cc(NC(=O)C(F)(F)C(F)F)c(F)cc1F)c1cc(NC(=O)[C@H]2[C@H](c3ccc(F)c(C(F)(F)F)c3)C2(Cl)Cl)ccc1Cl` [F1569, 2-Chloro-5-((1R,3R)-2,2-dichloro-3-(4-fluoro-3-(trifluoromethyl)phenyl)cyclopropane-1-carboxamido)-N-(2,4-difluoro-5-(2,2,3,3-tetrafluoropropanamido)phenyl)benzamide], the pest or weed control at 50 µg/cm2 in test [1] (setting [7]) and in test [2] (setting [8]) was 50 to 100% in each case.

Consider `Cc1cc(NC(=O)c2cc(NC(=O)[C@H]3[C@H](c4cc(Cl)cc(Cl)c4)C3(Cl)Cl)ccc2Cl)c(C)cc1N` (relative stereo) [F1257, trans-N-(4-Amino-2,5-dimethylphenyl)-2-chloro-5-(2,2-dichloro-3-(3,5-dichlorophenyl)cyclopropane-1-carboxamido)benzamide], for which the pest or weed control at 50 µg/cm2 in test [1] (setting [5]) and in test [2] (setting [6]) was 50 to 100% throughout.

For `Nc1cc(NC(=O)c2cc(NC(=O)[C@H]3[C@H](c4ccc(F)c(Cl)c4)C3(Cl)Cl)cc(F)c2Cl)c(F)cc1F` [F1395, N-(5-Amino-2,4-difluorophenyl)-2-chloro-5-((1R,3R)-2,2-dichloro-3-(3-chloro-4-fluorophenyl)cyclopropane-1-carboxamido)-3-fluorobenzamide], the pest or weed control at 50 µg/cm2 in test [1] (setting [7]) and in test [2] (setting [8]) was 50 to 100% each time.

As to `CC(=O)Nc1c(F)ccc(NC(=O)c2cc(NC(=O)[C@H]3[C@H](c4cc(Cl)c(Cl)c(Cl)c4)C3(Cl)Cl)ccc2Cl)c1F` [F1532, N-(3-Acetamido-2,4-difluorophenyl)-2-chloro-5-((1R,3R)-2,2-dichloro-3-(3,4,5-trichlorophenyl)cyclopropane-1-carboxamido)benzamide], the pest or weed control at 50 µg/cm2 in test [1] (setting [7]) and in test [2] (setting [8]) was 50 to 100% each time.

For `O=C(NCC(F)(F)C(F)(F)F)c1cc(NC(=O)[C@H]2[C@H](c3ccc(F)c(Cl)c3)C2(Cl)Cl)cc(F)c1F` (relative stereo) [F2050, trans-5-(2,2-Dichloro-3-(3-chloro-4-fluorophenyl)cyclopropane-1-carboxamido)-2,3-difluoro-N-(2,2,3,3,3-pentafluoropropyl)benzamide], the pest or weed control at 50 µg/cm2 in test [1] (setting [3]) and in test [2] (setting [4]) was 50 to 100% each time.

Take `O=C(Nc1ccc(F)c(NC(=O)C(F)(F)F)c1F)c1cc(NC(=O)[C@H]2[C@H](c3ccc(Cl)c(Cl)c3)C2(Cl)Cl)cc(F)c1Cl` [F1288, 2-Chloro-5-((1R,3R)-2,2-dichloro-3-(3,4-dichlorophenyl)cyclopropane-1-carboxamido)-N-(2,4-difluoro-3-(2,2,2-trifluoroacetamido)phenyl)-3-fluorobenzamide]: the pest or weed control at 50 µg/cm2 in test [1] (setting [5]) and in test [2] (setting [6]) was 50 to 100% each time.

`O=C(Nc1cc(NC(=O)C(F)(F)C(F)F)c(F)cc1F)c1cc(NC(=O)[C@H]2[C@H](c3cc(Cl)c(Cl)c(Cl)c3)C2(Cl)Cl)ccc1Cl` [F1568, 2-Chloro-5-((1R,3R)-2,2-dichloro-3-(3,4,5-trichlorophenyl)cyclopropane-1-carboxamido)-N-(2,4-difluoro-5-(2,2,3,3-tetrafluoropropanamido)phenyl)benzamide]: the pest or weed control at 50 µg/cm2 in test [1] (setting [7]) and in test [2] (setting [8]) was 50 to 100% in each case.

Take `O=C(Nc1cc(NC(=O)C(F)(F)F)c(F)cc1F)c1cc(NC(=O)[C@H]2[C@H](c3ccc(F)c(C(F)(F)F)c3)C2(Cl)Cl)cc(F)c1F` [F1584, 5-((1R,3R)-2,2-Dichloro-3-(4-fluoro-3-(trifluoromethyl)phenyl)cyclopropane-1-carboxamido)-N-(2,4-difluoro-5-(2,2,2-trifluoroacetamido)phenyl)-2,3-difluorobenzamide]: the pest or weed control at 50 µg/cm2 in test [1] (setting [7]) and in test [2] (setting [8]) was 50 to 100% in each case.
